This note sets out measurements from the supplement of paper PMC10307832.

Assay in all cases: relative viability (nuclei count vs DMSO), 5 days (fraction); higher = more cells survive
Compound in the assay “Tipifarnib + Vorinostat”: Cn1cncc1[C@@](N)(c1ccc(Cl)cc1)c1ccc2c(c1)c(-c1cccc(Cl)c1)cc(=O)n2C [Tipifarnib] + O=C(CCCCCCC(=O)Nc1ccccc1)NO [Vorinostat] (partner 1 µM)
A digest of the protocol: (§1)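 Each reported value is a median over duplicate plates. It expresses relative viability: treated-well nuclei count divided by vehicle-well nuclei count. Lung cancer cell lines in 1536-well plates were dosed by pin tool a day after seeding, alone with one drug or with a fixed anchor-drug dose plus five library-drug doses (not always all listed) in √10 steps, and nuclei were counted after 5 days.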

Compound in the assay “Tipifarnib + Palbociclib”: Cn1cncc1[C@@](N)(c1ccc(Cl)cc1)c1ccc2c(c1)c(-c1cccc(Cl)c1)cc(=O)n2C [Tipifarnib] + CC(=O)c1c(C)c2cnc(Nc3ccc(N4CCNCC4)cn3)nc2n(C2CCCC2)c1=O [Palbociclib] (partner 0.5 µM)
In a few lines:
as §1

Compound in the assay “Tipifarnib + AZD7762”: Cn1cncc1[C@@](N)(c1ccc(Cl)cc1)c1ccc2c(c1)c(-c1cccc(Cl)c1)cc(=O)n2C [Tipifarnib] + NC(=O)Nc1cc(-c2cccc(F)c2)sc1C(=O)N[C@H]1CCCNC1 [AZD7762] (partner 0.2 µM)
A digest of the protocol:
as §1

Compound in the assay “Tipifarnib + Crizotinib”: Cn1cncc1[C@@](N)(c1ccc(Cl)cc1)c1ccc2c(c1)c(-c1cccc(Cl)c1)cc(=O)n2C [Tipifarnib] + C[C@@H](Oc1cc(-c2cnn(C3CCNCC3)c2)cnc1N)c1c(Cl)ccc(F)c1Cl [Crizotinib] (partner 1 µM)
In a few lines: as §1

With HCC-44, the relative viability was found to be 0.963 with Tipifarnib + Vorinostat (first compound 0.01 µM); 1.04 with Tipifarnib + Vorinostat (first compound 0.03162 µM); 1.01 with Tipifarnib + Vorinostat (first compound 0.1 µM); 0.903 with Tipifarnib + Vorinostat (first compound 0.3162 µM); 0.881 in the assay with Tipifarnib + Vorinostat (first compound 1 µM); 0.952 with Tipifarnib + Palbociclib (first compound 0.01 µM). Also, the relative viability was determined as 0.921 with Tipifarnib + Palbociclib (first compound 0.03162 µM); 0.945 with Tipifarnib + Palbociclib (first compound 0.1 µM); 0.92 in the assay with Tipifarnib + Palbociclib (first compound 0.3162 µM); 0.926 with Tipifarnib + Palbociclib (first compound 1 µM); 0.943 in the assay with Tipifarnib + AZD7762 (first compound 0.01 µM); 0.979 in the assay with Tipifarnib + AZD7762 (first compound 0.03162 µM). For the same cell line, the relative viability with Tipifarnib + AZD7762 (first compound 0.1 µM) came out at 0.959; with Tipifarnib + AZD7762 (first compound 0.3162 µM), 0.899; with Tipifarnib + AZD7762 (first compound 1 µM), 0.837; with Tipifarnib + Crizotinib (first compound 0.01 µM), 0.749; with Tipifarnib + Crizotinib (first compound 0.03162 µM) it was 0.698; with Tipifarnib + Crizotinib (first compound 0.1 µM), 0.599. In addition, the relative viability with Tipifarnib + Crizotinib (first compound 0.3162 µM) was 0.576; in the assay with Tipifarnib + Crizotinib (first compound 1 µM), 0.568.
For the cell line HCC-78, the relative viability with Tipifarnib + Vorinostat (first compound 0.01 µM) turned out to be 0.503; with Tipifarnib + Vorinostat (first compound 0.03162 µM), 0.451; in the assay with Tipifarnib + Vorinostat (first compound 0.1 µM) it was 0.392; in the assay with Tipifarnib + Vorinostat (first compound 0.3162 µM), 0.385; in the assay with Tipifarnib + Vorinostat (first compound 1 µM), 0.366; with Tipifarnib + Palbociclib (first compound 0.01 µM), 0.478. Further, the relative viability was determined as 0.54 in the assay with Tipifarnib + Palbociclib (first compound 0.03162 µM); 0.558 in the assay with Tipifarnib + Palbociclib (first compound 0.1 µM); 0.454 in the assay with Tipifarnib + Palbociclib (first compound 0.3162 µM); 0.456 with Tipifarnib + Palbociclib (first compound 1 µM); 0.772 with Tipifarnib + AZD7762 (first compound 0.01 µM); 0.811 in the assay with Tipifarnib + AZD7762 (first compound 0.03162 µM). The relative viability with Tipifarnib + AZD7762 (first compound 0.1 µM) is 0.483; in the assay with Tipifarnib + AZD7762 (first compound 0.3162 µM), 0.511; in the assay with Tipifarnib + AZD7762 (first compound 1 µM) it was 0.415; with Tipifarnib + Crizotinib (first compound 0.01 µM), 0.321; with Tipifarnib + Crizotinib (first compound 0.03162 µM) it was 0.357; in the assay with Tipifarnib + Crizotinib (first compound 0.1 µM) it was 0.303. Besides, the relative viability with Tipifarnib + Crizotinib (first compound 0.3162 µM) came to 0.29; with Tipifarnib + Crizotinib (first compound 1 µM), 0.266.
As for HCC-366, the relative viability in the assay with Tipifarnib + Vorinostat (first compound 0.01 µM) was found to be 0.249; with Tipifarnib + Vorinostat (first compound 0.03162 µM), 0.145; in the assay with Tipifarnib + Vorinostat (first compound 0.1 µM), 0.102; in the assay with Tipifarnib + Vorinostat (first compound 0.3162 µM) it was 0.067; in the assay with Tipifarnib + Vorinostat (first compound 1 µM), 0.0373; with Tipifarnib + Palbociclib (first compound 0.01 µM), 0.259. Besides, the relative viability with Tipifarnib + Palbociclib (first compound 0.03162 µM) was determined as 0.346; with Tipifarnib + Palbociclib (first compound 0.1 µM) it was 0.199; in the assay with Tipifarnib + Palbociclib (first compound 0.3162 µM) it was 0.179; in the assay with Tipifarnib + Palbociclib (first compound 1 µM) it was 0.101; with Tipifarnib + AZD7762 (first compound 0.01 µM), 0.281; in the assay with Tipifarnib + AZD7762 (first compound 0.03162 µM), 0.304. In addition, the relative viability came to 0.171 with Tipifarnib + AZD7762 (first compound 0.1 µM); 0.0878 with Tipifarnib + AZD7762 (first compound 0.3162 µM); 0.0371 with Tipifarnib + AZD7762 (first compound 1 µM); 0.695 in the assay with Tipifarnib + Crizotinib (first compound 0.01 µM); 0.389 with Tipifarnib + Crizotinib (first compound 0.03162 µM); 0.151 with Tipifarnib + Crizotinib (first compound 0.1 µM). Also, the values for the relative viability in the assay with Tipifarnib + Crizotinib (first compound 0.3162 µM) and with Tipifarnib + Crizotinib (first compound 1 µM) were 0.17 and 0.034, respectively.
In the case of HCC-827, the relative viability came to 0.926 with Tipifarnib + Vorinostat (first compound 0.01 µM); 0.674 with Tipifarnib + Vorinostat (first compound 0.03162 µM); 0.69 in the assay with Tipifarnib + Vorinostat (first compound 0.1 µM); 0.485 in the assay with Tipifarnib + Vorinostat (first compound 0.3162 µM); 0.294 in the assay with Tipifarnib + Vorinostat (first compound 1 µM); 0.455 with Tipifarnib + Palbociclib (first compound 0.01 µM). Also, the relative viability with Tipifarnib + Palbociclib (first compound 0.03162 µM) turned out to be 0.495; in the assay with Tipifarnib + Palbociclib (first compound 0.1 µM) it was 0.472; in the assay with Tipifarnib + Palbociclib (first compound 0.3162 µM), 0.349; with Tipifarnib + Palbociclib (first compound 1 µM) it was 0.439; with Tipifarnib + AZD7762 (first compound 0.01 µM) it was 0.236; with Tipifarnib + AZD7762 (first compound 0.03162 µM) it was 0.287. Moreover, the relative viability with Tipifarnib + AZD7762 (first compound 0.1 µM) came out at 0.206; with Tipifarnib + AZD7762 (first compound 0.3162 µM), 0.207; with Tipifarnib + AZD7762 (first compound 1 µM), 0.178; with Tipifarnib + Crizotinib (first compound 0.01 µM), 0.868; with Tipifarnib + Crizotinib (first compound 0.03162 µM), 0.883; in the assay with Tipifarnib + Crizotinib (first compound 0.1 µM), 0.712. For the same cell line, the relative viability with Tipifarnib + Crizotinib (first compound 0.3162 µM) amounted to 0.617; with Tipifarnib + Crizotinib (first compound 1 µM) it was 0.552.
